Laboratory results published in patent US7829578B1, “Aromatic ketones and uses thereof” (Oregon Health & Science University, priority 2005, dated 2010).
Like-named read-outs stand apart in the source and are kept apart here. Values belong to the compound of their own block, whether it stands above or below them.

What was measured:
[1] = test system: multidrug resistant Dd2 strain of P. falciparum; assay: Isobolar analysis of combination with clopidol in vitro (FIG. 4); assay type: cell-based, Plasmodium falciparum
Experimental: Values below the theoretical straight line of addition are considered to be indicative of synergism. This study was performed with the multidrug resistant Dd2 strain of P. falciparum.

[2] = test system: Plasmodium parasitized red blood cells; assay: Oxygen consumption (respiration) by parasitized red blood cells (FIG. 3); assay type: cell-based; settings: compared with atovaquone at equimolar concentrations
From the text: While not intending to be limited to any mechanism of action, it is contemplated that some of the presently described compounds may act through inhibiting parasite growth through inhibition of the enzyme cytochrome b.

[3] = test system: multi-drug resistant strains of Plasmodium falciparum (W2, Dd2, 7G8 and Tm93C1088); assay: In vitro antimalarial activity against multi-drug resistant strains; assay type: cell-based; settings: for IC50: Plasmodium falciparum; for IC50 values, stated in words: against multidrug resistant Plasmodium falciparum parasites
Experimental: (§1) Four different laboratory strains of P. falciparum were cultured in human erythrocytes by standard methods under a low oxygen atmosphere (5% O2, 5% CO2, 90% N2) in an environmental chamber. The culture medium was RPMI 1640, supplemented with 25 mM Hepes buffer, 25 mg/liter gentamicin sulfate, 45 mg/liter hypoxanthine, 10 mM glucose, 2 mM glutamine, and 0.5% Albumax II (complete medium). The parasites were maintained in fresh human erythrocytes suspended at a 2% hematocrit in complete medium at 37° C. Stock cultures were sub-passaged every 3 to 4 days by transfer of infected red cells to a flask containing complete medium and uninfected erythrocytes.
(§2) In vitro antimalarial activity of the test compounds was assessed by a fluorescence-based method described previously (Smilkstein et al., 2004, Antimicrobial Agents and Chemotherapy, Vol. 48, pgs. 1803-1806) (reference format?). The studies were set up in triplicate in 96 well plates with two-fold dilutions of each test compound across the plate in a total volume of 100 μl and at a final red blood cell concentration of 2% (v/v). Stock solutions of each drug were prepared by dissolving in DMSO at 10 mM. […] In every case, an additional determination was performed to ensure bracketing of the IC50 value by at least an order of magnitude.
(§3) Automated pipeting and dilution was carried out by a programmable Precision 2000 robotic station (Bio-Tek, Winooski, Vt.). An initial parasitemia of 0.2% was attained by addition of normal uninfected red cells to a stock culture of asynchronous parasite infected red cells (PRBC). The plates were incubated for 72 hrs at 37° C. in an atmosphere of 5% CO2, 5% O2, and 90% N2. After this period, the SyBrGreen I dye-detergent mixture (100 μl) was added and the plates were incubated at room temperature for an hour in the dark and then placed in a 96-well fluorescence plate reader (Gemini-EM, […]) for analysis with excitation and emission wavelength bands centered at 497 and 520 nm, respectively.

[4] = test system: drug susceptible (D6) strain of Plasmodium falciparum; assay: In vitro antimalarial MSF (SyBrGreen I fluorescence) assay, D6 strain; assay type: cell-based; settings: for improvement of antimalarial potency by the QZ group: compared to IC50 of the parent compound without the QZ side chain
Experimental: as §1, §2, §3

[5] = test system: multi-drug resistant strain (W2) of Plasmodium falciparum; assay: In vitro antimalarial activity, W2 strain; assay type: cell-based; settings: read-out: IC50 against multi-drug resistant strain (W2)
Experimental: as §1
In vitro antimalarial activity of the test compounds was assessed by a fluorescence-based method described previously (Smilkstein et al., 2004, Antimicrobial Agents and Chemotherapy, Vol. 48, pgs. 1803-1806) (reference format?). […]
Automated pipeting and dilution was carried out by a programmable Precision 2000 robotic station (Bio-Tek, Winooski, Vt.). […] After this period, the SyBrGreen I dye-detergent mixture (100 μl) was added and the plates were incubated at room temperature for an hour in the dark and then placed in a 96-well fluorescence plate reader (Gemini-EM, […]) for analysis with excitation and emission wavelength bands centered at 497 and 520 nm, respectively.

[6] = test system: Murine splenic lymphocytes; assay: MSLCs-concanavalin A induced proliferation (blastogenesis) cytotoxicity assay, Alamar Blue fluorescence; assay type: cell-based; settings: Table 3, 48-hr MSLCs-concanavalin A induced proliferation
[7] = test system: multi-drug resistant (Dd2) strain of Plasmodium falciparum; assay: In vitro antimalarial MSF (SyBrGreen I fluorescence) assay, Dd2 strain; assay type: cell-based; settings: Table 3
Experimental: as §1, §2, §3

[8] = Plasmodium falciparum, D6, read-out: IC50 against drug sensitive (D6) strain

SMILES: COc1ccc2c(=O)c(CCCCCC(F)(F)F)c(C)[nH]c2c1 [2-methyl-3-(6,6,6-trifluorohexyl)-7-methoxy-4(1H)-quinolone]
interaction with clopidol [1]: acting in synergy with clopidol
inhibition of oxygen consumption (respiration) [2]: inhibiting oxygen consumption by Plasmodium parasitized red blood cells in similar fashion to atovaquone

IC50 [3]: ~700 nM
IC50 [4, 8]: ~700 nM
SMILES: O=c1c2ccc(O)cc2oc2cc(OCCCCCC(F)(F)F)ccc12 [3-(6,6,6-trifluorohexyloxy)-6-hydroxyxanthone]
improvement of antimalarial potency by the QZ group [4]: more than 100 fold

IC50 values, stated in words [3]: low nanomolar range
SMILES: O=C1C=C(OCCCCC(F)(C(F)(F)F)C(F)(F)F)C(=O)c2ccccc21 [NAP 005, 2-(5,6,6,6-tetrafluoro-5-trifluoromethyl-hexyloxy)-[1,4]naphthoquinone]
inhibition of oxygen consumption (respiration) [2]: does not inhibit oxygen consumption

IC50 [3]: 0.16 nM
IC50 [4, 8]: 0.16 nM
SMILES: O=c1c2ccc(Cl)cc2[nH]c2cc(OCCCCCC(F)(F)F)ccc12 [No. 21, 3-(6,6,6-trifluorohexyloxy)-6-chloroacridone]
improvement of antimalarial potency by the QZ group [4]: more than 10,000 fold

IC50 [3]: ~133 nM
IC50 [4, 8]: ~133 nM
SMILES: O=C1C=C(OCCCCC(F)(F)F)C(=O)c2ccccc21 [No. 35, 2-(5,5,5-trifluoropentyloxy)-1,4-naphthoquinone]
improvement of antimalarial potency by the QZ group [4]: roughly 50 fold

IC50 values, stated in words [3]: low nanomolar range
SMILES: COc1ccc2c(=O)c(CCCCCC(F)(F)F)c(C)[nH]c2c1 [No. 44, 2-methyl-3-(6,6,6-trifluorohexyl)-7-methoxy-4(1H)-quinolone]
inhibition of oxygen consumption (respiration) ([2]; listed as 2-methyl-3-(6,6,6-trifluorohexyl)-7-methoxy-4-quinolone): equivalent to atovaquone at equimolar concentrations

IC50 [5]: ~0.2 nM
IC50 ([4]; read-out: IC50 against drug sensitive (D6) strain): ~0.2 nM
SMILES: COc1ccc2c(=O)c(CCCCCCCCCCC(F)(F)F)c(C)[nH]c2c1 [No. 45, 2-methyl-3-(11,11,11-trifluoro-undecy1)-7-methoxy-4(1H)-quinolone]
improvement of antimalarial potency by the QZ group [4]: more than 1,000 fold

IC50 [7]: 1.2 nM
IC50 ([4]; Table 3, MSF assay, read-out: D6 IC50): 1.2 nM
SMILES: CCOC(=O)c1c[nH]c2cc(OCCCCCC(F)(F)F)ccc2c1=O [compound 46]
IC50 [6]: > 25000 nM
